# Measurements taken from patent US9862707B2, “TrkA kinase inhibitors, compositions and methods thereof” (Merck Sharp & Dohme Corp., priority 2014, dated 2018).
# Target: human TrkA receptor (Homo sapiens (Human), UniProt P04629)
# Assay: TrkA functional activity, DiscoverX PathHunter assay
# Type: cell-based
# Settings: U2OS cells expressing human TrkA-PK, Shc1-EA and p75NTR; compound 1 h, then NGF at ~80% of maximal response for 3 h; luminescence
# Chain of human TrkA receptor (P04629 33-796): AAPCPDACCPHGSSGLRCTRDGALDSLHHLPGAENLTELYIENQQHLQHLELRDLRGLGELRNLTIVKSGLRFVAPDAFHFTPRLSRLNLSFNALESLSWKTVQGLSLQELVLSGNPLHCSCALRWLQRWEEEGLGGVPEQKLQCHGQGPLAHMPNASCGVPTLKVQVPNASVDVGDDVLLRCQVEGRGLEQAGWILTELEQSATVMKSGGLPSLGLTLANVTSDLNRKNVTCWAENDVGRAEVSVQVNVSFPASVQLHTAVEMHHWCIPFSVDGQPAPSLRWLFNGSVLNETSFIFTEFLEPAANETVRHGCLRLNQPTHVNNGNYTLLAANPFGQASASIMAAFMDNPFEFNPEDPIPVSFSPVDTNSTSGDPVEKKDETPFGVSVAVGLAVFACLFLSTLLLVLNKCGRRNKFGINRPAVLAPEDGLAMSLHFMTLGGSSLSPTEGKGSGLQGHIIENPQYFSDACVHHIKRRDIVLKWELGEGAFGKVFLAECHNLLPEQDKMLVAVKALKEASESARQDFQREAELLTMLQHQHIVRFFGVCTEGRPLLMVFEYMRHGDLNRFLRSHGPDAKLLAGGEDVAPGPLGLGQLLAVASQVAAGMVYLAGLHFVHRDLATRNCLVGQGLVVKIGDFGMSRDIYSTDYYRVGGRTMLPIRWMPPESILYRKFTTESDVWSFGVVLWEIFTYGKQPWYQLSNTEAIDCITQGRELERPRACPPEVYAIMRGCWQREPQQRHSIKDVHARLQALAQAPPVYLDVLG
row,SMILES,IC50
1,"CC(=O)NCc1cccc(-n2nc3cccnc3c2NC(=O)c2cc(-c3ncccn3)c(C(F)(F)F)cc2F)c1 [Compound 9, N-(2-{3-[(acetylamino)methyl]phenyl}-2H-pyrazolo[4,3-b]pyridin-3-yl)-2-fluoro-5-pyrimidin-2-yl-4-(trifluoromethyl)benzamide]",744 nM
2,"CC(O)c1cnc2c(NC(=O)c3cc(-c4cc[nH]n4)c(C(F)(F)F)cc3F)n(-c3ccccc3)nc2c1 (single isomer, unassigned) [Compound 22, 2-Fluoro-N-(6-(1-hydroxyethyl)-2-phenyl-2H-pyrazolo[4,3-b]pyridin-3-yl)-5-(1H-pyrazol-3-yl)-4-(trifluoromethyl)benzamide, isomers A and B]",1.2 nM
3,"Cn1ccc(-c2cc(C(=O)Nc3c4cc(C(F)(F)F)ccc4nn3-c3ccccc3)c(F)cc2C(F)(F)F)n1 [Compound 7, 2-fluoro-5-(1-methyl-1H-pyrazol-3-yl)-N-[2-phenyl-5-(trifluoromethyl)-2H-indazol-3-yl]-4-(trifluoromethyl)benzamide]",29 nM
4,"NC(=O)c1cnc2c(NC(=O)c3cc(-c4ccccn4)c(C(F)(F)F)cc3F)n(-c3ccccc3)nc2c1 [Compound 84, 3-({[2-fluoro-5-pyridin-2-yl-4-(trifluoromethyl)phenyl]carbonyl}amino)-2-phenyl-2H-pyrazolo[4,3-b]pyridine-6-carboxamide]",2.6 nM
5,"Cn1ccc(-c2cc(C(=O)Nc3c4ncc(C(C)(C)O)cc4nn3-c3ccccc3)ccc2C(F)(F)F)n1 [Compound 48, N-[6-(1-hydroxy-1-methylethyl)-2-phenyl-2H-pyrazolo[4,3-b]pyridin-3-yl]-3-(1-methyl-1H-pyrazol-3-yl)-4-(trifluoromethyl)benzamide]",5.2 nM
6,"Cn1ccc(-c2cc(C(=O)Nc3c4ncc(C(N)=O)cc4nn3-c3ccccc3)ccc2C(F)(F)F)n1 [Compound 86, 3-({[3-(1-methyl-1H-pyrazol-3-yl)-4-(trifluoromethyl)phenyl]carbonyl}amino)-2-phenyl-2H-pyrazolo[4,3-b]pyridine-6-carboxamide]",2.8 nM
7,"CC(O)c1cnc2c(NC(=O)c3cc(-c4ccn(C)n4)c(C(F)(F)F)cc3F)n(-c3ccccc3)nc2c1 (single isomer, unassigned; isomer b) [Compound 34, (R or S)-2-fluoro-N-[6-(1-hydroxyethyl)-2-phenyl-2H-pyrazolo[4,3-b]pyridin-3-yl]-5-(1-methyl-1H-pyrazol-3-yl)-4-(trifluoromethyl)benzamide, isomer B]",0.48 nM
8,"CC(O)c1cnc2c(NC(=O)c3cc(-c4cc[nH]n4)c(C(F)(F)F)cc3F)n(-c3ccccc3)nc2c1 (single isomer, unassigned) [Compound 21, 2-Fluoro-N-(6-(1-hydroxyethyl)-2-phenyl-2H-pyrazolo[4,3-b]pyridin-3-yl)-5-(1H-pyrazol-3-yl)-4-(trifluoromethyl)benzamide, isomers A and B]",0.69 nM
9,"Cn1ccc(-c2cc(C(=O)Nc3c4cc(CO)ncc4nn3-c3ccccc3)c(F)cc2C(F)(F)F)n1 [Compound 18, 2-fluoro-N-[5-(hydroxymethyl)-2-phenyl-2H-pyrazolo[3,4-c]pyridin-3-yl)-5-(1-methyl-1H-pyrazol-3-yl)-4-(trifluoromethyl)benzamide]",1.9 nM
10,"Cn1ccc(-c2cc(C(=O)Nc3c4nc(C(C)(C)O)ncc4nn3-c3ccccc3)c(F)cc2C(F)(F)F)n1 [Compound 43, 2-Fluoro-N-(5-(2-hydroxypropan-2-yl)-2-phenyl-2H-pyrazolo[4,3-d]pyrimidin-3-yl)-5-(1-methyl-1H-pyrazol-3-yl)-4-(trifluoromethyl)benzamide]",33 nM
11,"O=C(Nc1c2ccc(CO)cc2nn1-c1ccccc1)c1cc(-c2cc[nH]n2)c(C(F)(F)F)cc1F [Compound 14, 2-fluoro-N-[6-(hydroxymethyl)-2-phenyl-2H-indazol-3-yl]-5-(1H-pyrazol-3-yl)-4-(trifluoromethyl)benzamide]",1.2 nM
12,"Cc1cc(-n2nc3ccc(CO)cc3c2NC(=O)c2cc(-c3ncccn3)c(C(F)(F)F)cc2F)n[nH]1 [Compound 15, 2-fluoro-N-[5-(hydroxymethyl)-2-(5-methyl-1H-pyrazol-3-yl)-2H-indazol-3-yl]-5-pyrimidin-2-yl-4-(trifluoromethyl)benzamide]",74 nM
13,"Cn1ccc(-c2cc(C(=O)Nc3c4ccc([C@H](N)C(F)(F)F)cc4nn3-c3ccccc3)ccc2C(F)(F)F)n1 [Compound 101, (S)—N-(6-(1-Amino-2,2,2-trifluoroethyl)-2-phenyl-2H-indazol-3-yl)-3-(1-methyl-1H-pyrazol-3-yl)-4-(trifluoromethyl)benzamide]",1.8 nM

# Other lines, results leading:
row,IC50,SMILES
1,29 nM,"O=C(Nc1c2ccc(C3CCCN3)cc2nn1-c1ccccc1)c1cc(-c2ncccn2)c(C(F)(F)F)cc1F (single isomer, unassigned) [Compound 103, (R and S)-2-Fluoro-N-(2-phenyl-6-(pyrrolidin-2-yl)-2H-indazol-3-yl)-5-(pyrimidin-2-yl)-4-(trifluoromethyl)benzamide, isomers A and B]"
2,7.2 nM,"NC(=O)c1cnc2c(NC(=O)c3cc(-c4ncccn4)c(C(F)(F)F)cc3F)n(-c3ccccc3)nc2c1 [Compound 75, 3-(2-Fluoro-5-(pyrimidin-2-yl)-4-(trifluoromethyl)benzamido)-2-phenyl-2H-pyrazolo[4,3-b]pyridine-6-carboxamide]"
3,3.1 nM,"NC(=O)c1ccc2c(NC(=O)c3cc(-c4ncccn4)c(C(F)(F)F)cc3F)n(-c3ccccc3)nc2c1 [Compound 73, 3-(2-Fluoro-5-(pyrimidin-2-yl)-4-(trifluoromethyl)benzamido)-2-phenyl-2H-indazole-6-carboxamide]"
4,8.9 nM,"CNC(=O)Cc1ccc2c(NC(=O)c3cc(-c4ncccn4)c(C(F)(F)F)cc3F)n(-c3ccccc3)nc2c1 [Compound 96, 2-fluoro-N-{6-[2-(methylamino)-2-oxoethyl]-2-phenyl-2H-indazol-3-yl}-5-pyrimidin-2-yl-4-(trifluoromethyl)benzamide]"
5,29 nM,"O=C(Nc1c2ccc(C(O)C(F)(F)F)cc2nn1-c1ccccc1)c1cc(-c2ncccn2)c(C(F)(F)F)cc1F (single isomer, unassigned) [Compound 53, (R or S)-2-Fluoro-N-{2-phenyl-6-[(1S)-2,2,2-trifluoro-1-hydroxyethyl]-2H-indazol-3-yl}-5-pyrimidin-2-yl-4-(trifluoromethyl)benzamide, isomers A and B]"
6,2.8 nM,"O=C(Nc1c2ccc(C(O)C(F)F)cc2nn1-c1ccccc1)c1cc(-c2ncccn2)c(C(F)(F)F)cc1F (single isomer, unassigned; isomer a) [Compound 56, (R or S)-N-[6-(2,2-difluoro-1-hydroxyethyl)-2-phenyl-2H-indazol-3-yl]-2-fluoro-5-pyrimidin-2-yl-4-(trifluoromethyl)benzamide, isomer A]"
7,2.8 nM,"O=C(Nc1c2ccc(C(O)C(F)(F)F)cc2nn1-c1ccccc1)c1cc(-c2ncccn2)c(C(F)(F)F)cc1F (single isomer, unassigned) [Compound 52, (R or S)-2-Fluoro-N-{2-phenyl-6-[(1S)-2,2,2-trifluoro-1-hydroxyethyl]-2H-indazol-3-yl}-5-pyrimidin-2-yl-4-(trifluoromethyl)benzamide, isomers A and B]"
8,29 nM,"O=C(Nc1c2ncc(C(O)CO)cc2nn1-c1ccccc1)c1cc(-c2ncccn2)c(C(F)(F)F)cc1Cl (single isomer, unassigned; isomer b) [Compound 65, (R or S)-2-chloro-N-[6-(1,2-dihydroxyethyl)-2-phenyl-2H-pyrazolo[4,3-b]pyridin-3-yl]-5-pyrimidin-2-yl-4-(trifluoromethyl)benzamide, isomer B]"
9,4.9 nM,"CC(O)c1ccc2c(NC(=O)c3cc(-c4ncccn4)c(C(F)(F)F)cc3Cl)n(-c3ccccc3)nc2c1 (single isomer, unassigned; isomer b) [Compound 38, (R or S)-2-chloro-N-[6-(1-hydroxyethyl)-2-phenyl-2H-indazol-3-yl]-5-pyrimidin-2-yl-4-(trifluoromethyl)benzamide, isomer B]"
10,14 nM,"CC(N)c1ccc2c(NC(=O)c3cc(-c4ncccn4)c(C(F)(F)F)cc3F)n(-c3ccccc3)nc2c1 (single isomer, unassigned) [Compound 70, (R or S)-N-{6-[1-aminoethyl]-2-phenyl-2H-indazol-3-yl}-2-fluoro-5-pyrimidin-2-yl-4-(trifluoromethyl)benzamide]"
11,7.1 nM,"CC(N)c1ccc2c(NC(=O)c3cc(-c4ncccn4)c(C(F)(F)F)cc3F)n(-c3ccccc3)nc2c1 (single isomer, unassigned) [Compound 69, (R or S)-N-{6-[1-aminoethyl]-2-phenyl-2H-indazol-3-yl}-2-fluoro-5-pyrimidin-2-yl-4-(trifluoromethyl)benzamide]"
12,29 nM,"O=C(Nc1c2ccc(C3CCCN3)cc2nn1-c1ccccc1)c1cc(-c2ncccn2)c(C(F)(F)F)cc1F (single isomer, unassigned) [Compound 102, (R and S)-2-Fluoro-N-(2-phenyl-6-(pyrrolidin-2-yl)-2H-indazol-3-yl)-5-(pyrimidin-2-yl)-4-(trifluoromethyl)benzamide, isomers A and B]"
13,15 nM,"O=C(Nc1c2ncc(C(O)CO)cc2nn1-c1ccccc1)c1cc(-c2ncccn2)c(C(F)(F)F)cc1Cl (single isomer, unassigned; isomer a) [Compound 64, (R or S)-2-chloro-N-[6-(1,2-dihydroxyethyl)-2-phenyl-2H-pyrazolo[4,3-b]pyridin-3-yl]-5-pyrimidin-2-yl-4-(trifluoromethyl)benzamide, isomer A]"
14,1.1 nM,"CC(O)c1cnc2c(NC(=O)c3cc(-c4ncccn4)c(C(F)(F)F)cc3F)n(-c3ccccc3)nc2c1 (single isomer, unassigned; isomer b) [Compound 30, (R or S)-2-fluoro-N-[6-(1-hydroxyethyl)-2-phenyl-2H-pyrazolo[4,3-b]pyridin-3-yl]-5-pyrimidin-2-yl-4-(trifluoromethyl)benzamide, isomer B]"
